For one test, the system named is DLD-1. The experiment in a line: Cytotoxicity against human DLD1 cells assessed as growth inhibition at 1 to 20 uM measured on day 10 by crystal violet staining. It is filed as functional, cell-based.
Test [1] has as its target T1, Protein mono-ADP-ribosyltransferase PARP10 (Homo sapiens) (UniProt Q53GL7).
T1 sequence (whole entry): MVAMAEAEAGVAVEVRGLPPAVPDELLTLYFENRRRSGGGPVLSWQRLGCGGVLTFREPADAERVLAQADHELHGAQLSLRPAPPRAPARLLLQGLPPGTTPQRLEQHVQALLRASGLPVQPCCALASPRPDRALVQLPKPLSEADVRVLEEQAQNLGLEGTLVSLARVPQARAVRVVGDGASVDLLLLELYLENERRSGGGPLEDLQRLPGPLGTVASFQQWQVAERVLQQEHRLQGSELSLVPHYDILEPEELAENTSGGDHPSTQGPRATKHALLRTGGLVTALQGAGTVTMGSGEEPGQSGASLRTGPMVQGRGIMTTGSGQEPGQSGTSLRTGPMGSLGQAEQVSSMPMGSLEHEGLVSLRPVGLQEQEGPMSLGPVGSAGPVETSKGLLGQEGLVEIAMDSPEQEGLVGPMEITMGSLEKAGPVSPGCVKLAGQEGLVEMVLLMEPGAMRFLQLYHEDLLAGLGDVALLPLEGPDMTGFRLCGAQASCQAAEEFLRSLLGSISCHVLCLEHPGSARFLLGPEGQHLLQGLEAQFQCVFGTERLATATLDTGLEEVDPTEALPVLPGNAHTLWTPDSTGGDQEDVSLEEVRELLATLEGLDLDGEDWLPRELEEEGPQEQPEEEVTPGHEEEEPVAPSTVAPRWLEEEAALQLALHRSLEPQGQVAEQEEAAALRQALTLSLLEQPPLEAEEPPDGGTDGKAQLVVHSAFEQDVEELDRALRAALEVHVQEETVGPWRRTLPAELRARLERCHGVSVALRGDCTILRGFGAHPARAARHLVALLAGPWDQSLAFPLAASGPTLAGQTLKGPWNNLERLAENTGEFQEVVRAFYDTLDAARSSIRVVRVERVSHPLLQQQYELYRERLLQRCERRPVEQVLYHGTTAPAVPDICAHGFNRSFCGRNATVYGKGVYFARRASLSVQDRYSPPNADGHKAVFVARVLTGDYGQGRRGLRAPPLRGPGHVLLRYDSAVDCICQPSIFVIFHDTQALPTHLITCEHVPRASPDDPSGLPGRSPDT
Particulars: 10 uM.
Description: Inhibition of recombinant human PARP-10 at 10 uM relative to control

Test [2] concerns the target Poly [ADP-ribose] polymerase 1 (Homo sapiens, UniProt P09874). As to the kind of experiment: Inhibition of recombinant human PARP-1.
Test [3] concerns the target Poly [ADP-ribose] polymerase 2 (Homo sapiens, UniProt Q9UGN5). The experiment in a line: Inhibition of recombinant human PARP-2.
In test [4] the target is T2, Protein mono-ADP-ribosyltransferase PARP3 (Homo sapiens) (UniProt Q9Y6F1).
T2 sequence (whole entry): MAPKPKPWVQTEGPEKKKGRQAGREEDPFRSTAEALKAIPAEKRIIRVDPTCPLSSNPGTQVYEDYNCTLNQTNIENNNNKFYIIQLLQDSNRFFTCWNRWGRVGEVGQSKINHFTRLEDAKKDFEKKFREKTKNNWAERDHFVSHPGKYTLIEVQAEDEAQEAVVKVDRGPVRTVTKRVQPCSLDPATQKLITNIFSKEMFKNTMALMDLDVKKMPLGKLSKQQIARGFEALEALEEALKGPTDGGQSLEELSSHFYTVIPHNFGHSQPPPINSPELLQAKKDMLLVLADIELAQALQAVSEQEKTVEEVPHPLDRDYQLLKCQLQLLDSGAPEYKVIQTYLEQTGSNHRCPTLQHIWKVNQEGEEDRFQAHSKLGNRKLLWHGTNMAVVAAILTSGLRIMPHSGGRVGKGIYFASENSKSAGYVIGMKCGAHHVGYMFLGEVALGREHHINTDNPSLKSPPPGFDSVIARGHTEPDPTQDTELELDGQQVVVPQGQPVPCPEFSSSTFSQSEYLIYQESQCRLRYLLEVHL
As to conditions: 10 uM.
Description: Inhibition of recombinant human PARP-3 at 10 uM relative to control

For test [5], the target named is Protein mono-ADP-ribosyltransferase PARP6 (Homo sapiens) (UniProt Q2NL67). Particulars: 10 uM.
Description: Inhibition of recombinant human PARP-6 at 10 uM relative to control
The target in test [6] is T3, Protein mono-ADP-ribosyltransferase TIPARP (Homo sapiens) (UniProt Q7Z3E1).
T3 sequence (whole entry): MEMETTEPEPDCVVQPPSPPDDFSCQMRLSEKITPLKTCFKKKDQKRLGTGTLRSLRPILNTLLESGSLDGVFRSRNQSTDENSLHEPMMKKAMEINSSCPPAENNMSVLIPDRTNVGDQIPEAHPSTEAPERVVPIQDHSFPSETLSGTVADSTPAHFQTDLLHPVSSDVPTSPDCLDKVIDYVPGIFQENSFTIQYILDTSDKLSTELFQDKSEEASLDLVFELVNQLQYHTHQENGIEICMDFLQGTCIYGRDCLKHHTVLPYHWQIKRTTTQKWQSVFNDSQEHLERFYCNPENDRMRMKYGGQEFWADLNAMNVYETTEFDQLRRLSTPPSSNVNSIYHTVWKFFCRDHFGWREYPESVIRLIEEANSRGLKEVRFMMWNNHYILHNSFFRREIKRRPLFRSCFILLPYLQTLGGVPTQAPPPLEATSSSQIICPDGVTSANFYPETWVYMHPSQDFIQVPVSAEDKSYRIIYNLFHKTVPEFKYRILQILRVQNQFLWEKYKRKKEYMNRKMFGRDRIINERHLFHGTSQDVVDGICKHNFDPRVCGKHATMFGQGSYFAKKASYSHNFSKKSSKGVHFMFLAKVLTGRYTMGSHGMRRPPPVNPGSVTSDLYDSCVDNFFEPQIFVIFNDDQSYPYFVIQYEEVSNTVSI
Particulars: 10 uM.
Description: Inhibition of recombinant human PARP-7 at 10 uM relative to control

Test [7] addresses T4, Protein mono-ADP-ribosyltransferase PARP8 (Homo sapiens) (UniProt Q8N3A8).
T4 sequence (whole entry): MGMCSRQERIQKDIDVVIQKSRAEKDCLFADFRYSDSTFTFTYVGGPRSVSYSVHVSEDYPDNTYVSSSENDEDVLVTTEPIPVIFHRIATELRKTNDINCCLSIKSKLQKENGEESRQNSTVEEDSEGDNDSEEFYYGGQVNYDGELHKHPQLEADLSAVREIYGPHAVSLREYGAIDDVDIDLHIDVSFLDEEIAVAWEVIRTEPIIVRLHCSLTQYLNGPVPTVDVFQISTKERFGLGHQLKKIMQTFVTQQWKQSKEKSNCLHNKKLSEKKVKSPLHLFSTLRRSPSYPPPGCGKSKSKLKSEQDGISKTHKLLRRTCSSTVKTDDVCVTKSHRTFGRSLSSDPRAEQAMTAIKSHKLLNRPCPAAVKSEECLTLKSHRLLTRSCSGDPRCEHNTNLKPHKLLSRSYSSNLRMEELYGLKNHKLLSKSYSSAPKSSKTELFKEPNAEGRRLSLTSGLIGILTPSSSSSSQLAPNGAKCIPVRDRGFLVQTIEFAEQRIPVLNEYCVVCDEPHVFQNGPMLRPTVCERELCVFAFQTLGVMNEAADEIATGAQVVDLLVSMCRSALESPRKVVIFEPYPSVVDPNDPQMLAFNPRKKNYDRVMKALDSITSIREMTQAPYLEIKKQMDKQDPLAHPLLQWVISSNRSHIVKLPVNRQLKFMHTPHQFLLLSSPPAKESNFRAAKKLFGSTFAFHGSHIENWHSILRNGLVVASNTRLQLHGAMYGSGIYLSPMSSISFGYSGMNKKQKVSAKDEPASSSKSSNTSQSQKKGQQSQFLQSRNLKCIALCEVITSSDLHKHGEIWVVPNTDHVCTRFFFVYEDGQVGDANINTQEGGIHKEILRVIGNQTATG
Particulars: 10 uM.
Description: Inhibition of recombinant human PARP-8 at 10 uM relative to control

The text below walks through data of ChEMBL document CHEMBL3232733, “Design, synthesis, crystallographic studies, and preliminary biological appraisal of new substituted triazolo[4,3-b]pyridazin-8-amine derivatives as tankyrase inhibitors” (J Med Chem, 2014).

SMILES strings stand for the structures. Active and inactive are the calls of the source. The calls are words filed in the database; no cut-off is given here. Where only a bound is given, the exact number is not on record here.

Chain of Poly [ADP-ribose] polymerase 1 (P09874 whole entry): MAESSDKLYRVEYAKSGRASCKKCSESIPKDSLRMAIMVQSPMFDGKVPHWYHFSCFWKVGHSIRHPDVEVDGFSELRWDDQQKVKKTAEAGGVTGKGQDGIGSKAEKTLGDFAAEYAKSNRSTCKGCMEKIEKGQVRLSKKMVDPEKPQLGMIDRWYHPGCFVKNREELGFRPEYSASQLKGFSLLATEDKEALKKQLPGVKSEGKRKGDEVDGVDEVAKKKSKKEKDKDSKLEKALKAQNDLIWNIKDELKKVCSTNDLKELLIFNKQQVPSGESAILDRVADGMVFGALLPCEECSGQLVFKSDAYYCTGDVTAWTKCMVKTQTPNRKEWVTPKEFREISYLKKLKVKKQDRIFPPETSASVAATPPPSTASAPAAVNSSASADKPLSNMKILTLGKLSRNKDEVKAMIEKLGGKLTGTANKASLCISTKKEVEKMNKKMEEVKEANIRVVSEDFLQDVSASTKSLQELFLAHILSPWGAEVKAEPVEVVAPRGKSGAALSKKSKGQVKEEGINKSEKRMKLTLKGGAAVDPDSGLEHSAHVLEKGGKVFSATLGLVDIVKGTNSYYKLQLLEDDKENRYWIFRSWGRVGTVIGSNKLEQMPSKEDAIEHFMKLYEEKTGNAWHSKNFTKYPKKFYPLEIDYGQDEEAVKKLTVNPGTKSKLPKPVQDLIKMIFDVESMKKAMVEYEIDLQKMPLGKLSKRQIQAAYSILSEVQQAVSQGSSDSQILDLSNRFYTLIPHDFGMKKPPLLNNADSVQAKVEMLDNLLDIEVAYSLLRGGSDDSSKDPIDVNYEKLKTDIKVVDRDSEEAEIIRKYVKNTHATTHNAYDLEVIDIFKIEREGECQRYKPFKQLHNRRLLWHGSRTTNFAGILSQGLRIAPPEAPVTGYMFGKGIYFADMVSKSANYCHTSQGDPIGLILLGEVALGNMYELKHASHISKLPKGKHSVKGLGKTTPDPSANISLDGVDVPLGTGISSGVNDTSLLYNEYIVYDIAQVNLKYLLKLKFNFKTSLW
Chain of Protein mono-ADP-ribosyltransferase PARP6 (Homo sapiens) (Q2NL67 whole entry): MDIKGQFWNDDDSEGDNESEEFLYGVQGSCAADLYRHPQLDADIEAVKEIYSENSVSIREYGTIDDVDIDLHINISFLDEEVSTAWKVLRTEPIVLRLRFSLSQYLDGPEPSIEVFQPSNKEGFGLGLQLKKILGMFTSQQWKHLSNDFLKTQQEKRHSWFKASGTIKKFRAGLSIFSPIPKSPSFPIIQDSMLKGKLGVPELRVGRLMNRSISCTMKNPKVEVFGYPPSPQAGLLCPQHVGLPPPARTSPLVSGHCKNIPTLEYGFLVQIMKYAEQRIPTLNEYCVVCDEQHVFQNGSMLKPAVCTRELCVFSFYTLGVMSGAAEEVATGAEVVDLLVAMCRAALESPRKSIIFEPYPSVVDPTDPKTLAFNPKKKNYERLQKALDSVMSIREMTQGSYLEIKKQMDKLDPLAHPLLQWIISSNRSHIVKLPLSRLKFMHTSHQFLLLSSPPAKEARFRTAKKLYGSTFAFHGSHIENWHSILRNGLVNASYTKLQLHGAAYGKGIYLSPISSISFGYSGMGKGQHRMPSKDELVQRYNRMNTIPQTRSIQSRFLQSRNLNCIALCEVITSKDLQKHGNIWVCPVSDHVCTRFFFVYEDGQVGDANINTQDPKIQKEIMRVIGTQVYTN
Chain of Poly [ADP-ribose] polymerase 2 (Q9UGN5 whole entry): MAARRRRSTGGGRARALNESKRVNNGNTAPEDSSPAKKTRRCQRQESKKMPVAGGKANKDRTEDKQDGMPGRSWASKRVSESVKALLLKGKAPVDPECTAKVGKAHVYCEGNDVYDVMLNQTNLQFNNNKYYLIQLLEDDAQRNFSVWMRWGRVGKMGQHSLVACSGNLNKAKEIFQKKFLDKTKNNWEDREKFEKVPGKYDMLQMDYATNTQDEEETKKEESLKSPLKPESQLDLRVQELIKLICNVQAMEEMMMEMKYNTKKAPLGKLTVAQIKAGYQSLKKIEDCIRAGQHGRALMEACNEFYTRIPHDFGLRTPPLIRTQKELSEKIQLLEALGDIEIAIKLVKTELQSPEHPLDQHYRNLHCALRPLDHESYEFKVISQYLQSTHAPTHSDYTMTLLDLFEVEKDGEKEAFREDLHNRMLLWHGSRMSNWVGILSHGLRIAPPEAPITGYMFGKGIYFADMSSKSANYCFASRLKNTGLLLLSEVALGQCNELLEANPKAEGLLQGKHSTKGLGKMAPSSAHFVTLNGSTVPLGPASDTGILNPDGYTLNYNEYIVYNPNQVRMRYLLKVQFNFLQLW

Take `O=C(Nc1cccc2cccnc12)c1ccc(N2C(=O)[C@@H]3[C@H](C2=O)[C@@H]2C=C[C@H]3C2)cc1`: in the test on DLD-1, the “growth inhibition (GI)” value was “Active”.

Broadly, the inhibition is the drop in the measured response relative to a control, in per cent. As to `O=C(c1cc(Cc2n[nH]c(=O)c3ccccc23)ccc1F)N1CCN(C(=O)C2CC2)CC1`, the inhibition in test [1] was > 70%.

By IC50 is commonly meant the point on the concentration scale where inhibition reaches its midpoint. In the case of `Cc1cc(NCCc2ccc(O)cc2)c2nncn2n1`, the IC50 in test [2] and in test [3] was > 10 µM each time. Moreover, in the test on DLD-1, the “growth inhibition (GI)” value was “Active”. Further, the inhibition entry in test [4], in test [5], in test [6], in test [7] and in test [1] was “inactive” each time.

Turning to `Oc1nc(-c2ccc(C(F)(F)F)cc2)nc2c1CSCC2`, in the test with DLD-1, the “growth inhibition (GI)” value is “Active”.
